These results are taken from patent publication US20100311714A1, “1H-IMIDAZO[4,5-c]QUINOLINONE COMPOUNDS” (priority 2009, published 2010).

T1 sequence (P42345 1360-2549 limits assumed): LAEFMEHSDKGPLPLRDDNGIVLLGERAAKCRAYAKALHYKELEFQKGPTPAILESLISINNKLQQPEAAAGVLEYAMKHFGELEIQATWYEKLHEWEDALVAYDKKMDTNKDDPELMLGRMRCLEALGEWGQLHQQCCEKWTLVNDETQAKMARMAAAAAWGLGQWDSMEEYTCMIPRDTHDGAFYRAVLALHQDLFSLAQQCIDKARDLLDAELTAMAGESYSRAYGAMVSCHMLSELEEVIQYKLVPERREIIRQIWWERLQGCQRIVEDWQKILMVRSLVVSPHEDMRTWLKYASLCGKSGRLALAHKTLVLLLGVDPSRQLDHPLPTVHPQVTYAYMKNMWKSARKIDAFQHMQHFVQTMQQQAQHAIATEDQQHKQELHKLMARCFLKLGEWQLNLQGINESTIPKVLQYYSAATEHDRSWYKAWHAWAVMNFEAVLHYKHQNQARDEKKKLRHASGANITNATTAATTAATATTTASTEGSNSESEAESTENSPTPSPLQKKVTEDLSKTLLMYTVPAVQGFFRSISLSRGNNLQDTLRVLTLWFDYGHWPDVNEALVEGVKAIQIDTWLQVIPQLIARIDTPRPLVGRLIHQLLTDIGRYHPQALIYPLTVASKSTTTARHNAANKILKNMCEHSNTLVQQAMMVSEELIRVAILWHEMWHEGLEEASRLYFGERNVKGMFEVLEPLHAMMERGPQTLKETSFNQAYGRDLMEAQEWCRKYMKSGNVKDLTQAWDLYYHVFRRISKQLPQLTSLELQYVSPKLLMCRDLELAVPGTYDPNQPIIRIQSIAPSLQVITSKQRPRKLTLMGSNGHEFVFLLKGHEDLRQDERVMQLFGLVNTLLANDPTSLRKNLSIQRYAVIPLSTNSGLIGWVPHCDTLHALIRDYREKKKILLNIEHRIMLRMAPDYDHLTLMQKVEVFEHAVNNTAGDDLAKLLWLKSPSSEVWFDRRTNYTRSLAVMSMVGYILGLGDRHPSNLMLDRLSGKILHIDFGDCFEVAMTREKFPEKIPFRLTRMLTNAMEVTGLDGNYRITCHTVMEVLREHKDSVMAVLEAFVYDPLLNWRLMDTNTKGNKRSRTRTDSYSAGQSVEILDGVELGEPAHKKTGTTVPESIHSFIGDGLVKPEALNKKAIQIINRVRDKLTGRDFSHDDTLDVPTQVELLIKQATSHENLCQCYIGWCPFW

The first assay has as its target T1, mTOR (Homo sapiens, UniProt P42345).
T1 construct: purchased Invitrogen Corporation (Carlsbad/Calif., USA) PV4753
Kind of assay: Biochemical assay for m-TOR by TR-FRET. The settings on record: read-out: EPK_mTOR/IC50. Here is the method:
Biochemical Assay for m-TOR by TR-FRET.
Assay components are purchased from Invitrogen Corporation (Carlsbad/Calif., USA): GFP-4EBP1 (Cat. No. PV4759), Tb3+-α-p4EBP1 [pThr46] Antibody (Cat. No. PV4757), proprietary TR-FRET dilution buffer (Cat. No. PV3574), mTOR protein (Cat. No. PV4753).
50 nL of compound dilutions (final concentration of 10, 3.0, 1.0, 0.3, 0.1, 0.03, 0.01 and 0.003 μM) are dispensed onto black 384-well low volume non-binding polystyrene (Cat. No. NBS#3676, Corning, Lowell/Mass., USA). Then 5 μL of ATP (8 μM final concentration) and GFP-4EBP1 (400 nM final concentration) with 5 μL mTOR proteins (0.5 nM final concentration) are incubated at rt. The standard reaction buffer for the TR-FRET mTOR assay contained 50 mM HEPES pH 7.5, 10 mM MnCl2, 50 mM NaCl, 1 mM EGTA, 1 mM DTT. Reactions were stopped with 10 μL of a mixture of EDTA containing the Tb3+-α-p4EBP1[pT46] detection Ab (0.5 nM) in TR-FRET dilution buffer (proprietary to IVG). Plates are read 15 mins later in a Synergy2 reader using an integration time of 0.2 seconds and a delay of 0.1 seconds. Control for the 100% inhibition of the kinase reaction is performed by replacing the mTOR kinase by the standard reaction buffer. The control for the 0% inhibition is given by the solvent vehicle of the compounds (90% DMSO in H2O). A standard compound is used as a reference compound and included in all assay plates in the form of 16 dilution points in duplicate.
A general note: Time-resolved FRET reads energy transfer from a long-lived donor to a nearby acceptor.
On to `Cc1ncccc1-n1c(=O)n(C)c2cnc3ccc(-c4cncc(N)c4)cc3c21` [Example 2.25, 8-(5-Amino-pyridin-3-yl)-3-methyl-1-(2-methyl-pyridin-3-yl)-1,3-dihydro-imidazo[4,5-c]quinolin-2-one], for which the IC50 amounted to 12 nM.

Turning to `Cc1nc(N2CCN(C)C(=O)C2)ccc1-n1c(=O)n(C)c2cnc3ccc(-c4cnc(N)c(C(F)(F)F)c4)cc3c21` [Example 21.1, 8-(6-Amino-5-trifluoromethyl-pyridin-3-yl)-3-methyl-1-[2-methyl-6-(4-methyl-3-oxo-piperazin-1-yl)-pyridin-3-yl]-1,3-dihydro-imidazo[4,5-c]quinolin-2-one], the IC50 was less than 3 nM.

For `COCc1ncc(-c2ccc3ncc4c(c3c2)n(-c2ccc(N3CCC3)nc2C)c(=O)n4C)cc1OC(C)C` [Example 23.2, 1-(6-Azetidin-1-yl-2-methyl-pyridin-3-yl)-8-(5-isopropoxy-6-methoxymethyl-pyridin-3-yl)-3-methyl-1,3-dihydro-imidazo[4,5-c]quinolin-2-one], the IC50 came out at 44 nM.

With `Cc1nc(N2CCC2)ccc1-n1c(=O)n(C)c2cnc3ccc(-c4cncc(C(C)(C)O)c4)cc3c21` [Example 23.3, 1-(6-Azetidin-1-yl-2-methyl-pyridin-3-yl)-8-[5-(1-hydroxy-1-methyl-ethyl)-pyridin-3-yl]-3-methyl-1,3-dihydro-imidazo[4,5-c]quinolin-2-one], the IC50 worked out at 7 nM.

For `CNc1ccc(-c2ccc3ncc4c(c3c2)n(-c2ccc(N3CCC3)nc2C)c(=O)n4C)cn1` [Example 23.4, 1-(6-Azetidin-1-yl-2-methyl-pyridin-3-yl)-3-methyl-8-(6-methylamino-pyridin-3-yl)-1,3-dihydro-imidazo[4,5-c]quinolin-2-one], the IC50 worked out at 6 nM.

Regarding `CCOc1cc(-c2ccc3ncc4c(c3c2)n(-c2ccc(N3CCC3)nc2C)c(=O)n4C)cnc1COC` [Example 23.5, 1-(6-Azetidin-1-yl-2-methyl-pyridin-3-yl)-8-(5-ethoxy-6-methoxymethyl-pyridin-3-yl)-3-methyl-1,3-dihydro-imidazo[4,5-c]quinolin-2-one], the IC50 is 25 nM.

Regarding `COCc1ncc(-c2ccc3ncc4c(c3c2)n(-c2ccc(N3CCC3)nc2C)c(=O)n4C)cc1OC` [Example 23.6, 1-(6-Azetidin-1-yl-2-methyl-pyridin-3-yl)-8-(5-methoxy-6-methoxymethyl-pyridin-3-yl)-3-methyl-1,3-dihydro-imidazo[4,5-c]quinolin-2-one], the IC50 came out at 137 nM.

In the case of `Cc1nc(N2CCC2)ccc1-n1c(=O)n(C)c2cnc3ccc(-c4cncc(OC(C)C)c4)cc3c21` [Example 23.9, 1-(6-Azetidin-1-yl-2-methyl-pyridin-3-yl)-8-(5-isopropoxy-pyridin-3-yl)-3-methyl-1,3-dihydro-imidazo[4,5-c]quinolin-2-one], the IC50 turned out to be 37 nM.

With `CCNc1cc(-c2ccc3ncc4c(c3c2)n(-c2ccc(N3CC(O)C3)nc2C)c(=O)n4C)cnc1CO` [Example 29.2, 8-(5-Ethylamino-6-hydroxymethyl-pyridin-3-yl)-1-[6-(3-hydroxy-azetidin-1-yl)-2-methyl-pyridin-3-yl]-3-methyl-1,3-dihydro-imidazo[4,5-c]quinolin-2-one], the IC50 worked out at 5 nM.

Consider `CNc1ncc(-c2ccc3ncc4c(c3c2)n(-c2ccc(C(C)(C)O)nc2C)c(=O)n4C)cc1F` [Example 31.1, 8-(5-Fluoro-6-methylamino-pyridin-3-yl)-1-[6-(1-hydroxy-1-methyl-ethyl)-2-methyl-pyridin-3-yl]-3-methyl-1,3-dihydro-imidazo[4,5-c]quinolin-2-one], for which the IC50 was found to be 21 nM.

`CCOc1ccc(-c2ccc3ncc4c(c3c2)n(-c2ccc(C(C)(C)O)nc2C)c(=O)n4C)cn1` [Example 31.4, 8-(6-Ethoxy-pyridin-3-yl)-1-[6-(1-hydroxy-1-methyl-ethyl)-2-methyl-pyridin-3-yl]-3-methyl-1,3-dihydro-imidazo[4,5-c]quinolin-2-one]: the IC50 is 75 nM.

In the case of `Cc1nc(C(C)(C)O)ccc1-n1c(=O)n(C)c2cnc3ccc(-c4cnc(N)c(C(F)(F)F)c4)cc3c21` [Example 31.5, 8-(6-Amino-5-trifluoromethyl-pyridin-3-yl)-1-[6-(1-hydroxy-1-methyl-ethyl)-2-methyl-pyridin-3-yl]-3-methyl-1,3-dihydro-imidazo[4,5-c]quinolin-2-one], the IC50 worked out at 6 nM.

Regarding `Cc1nc(C(C)(C)O)ccc1-n1c(=O)n(C)c2cnc3ccc(-c4cncc(C(C)(C)C#N)c4)cc3c21` [Example 31.6, 2-(5-{1-[6-(1-Hydroxy-1-methyl-ethyl)-2-methyl-pyridin-3-yl]-3-methyl-2-oxo-2,3-dihydro-1H-imidazo[4,5-c]quinolin-8-yl}-pyridin-3-yl)-2-methyl-propionitrile], the IC50 was determined as 95 nM.

On to `CCNc1ncc(-c2ccc3ncc4c(c3c2)n(-c2ccc(C(C)(C)O)nc2C)c(=O)n4C)cn1` [Example 31.7, 8-(2-Ethylamino-pyrimidin-5-yl)-1-[6-(1-hydroxy-1-methyl-ethyl)-2-methyl-pyridin-3-yl]-3-methyl-1,3-dihydro-imidazo[4,5-c]quinolin-2-one], for which the IC50 is 21 nM.

For the compound `Cc1nc(C(C)(C)O)ccc1-n1c(=O)n(C)c2cnc3ccc(-c4cncc(C5(C#N)CCC5)c4)cc3c21` [Example 31.8, 1-(5-{1-[6-(1-Hydroxy-1-methyl-ethyl)-2-methyl-pyridin-3-yl]-3-methyl-2-oxo-2,3-dihydro-1H-imidazo[4,5-c]quinolin-8-yl}-pyridin-3-yl)-cyclobutanecarbonitrile], the IC50 was found to be 122 nM.

Turning to `CNc1ncc(-c2ccc3ncc4c(c3c2)n(-c2ccc(N3CC[C@H](O)C3)nc2C)c(=O)n4C)cn1` [Example 32.1, 1-[6-((S)-3-Hydroxy-pyrrolidin-1-yl)-2-methyl-pyridin-3-yl]-3-methyl-8-(2-methylamino-pyrimidin-5-yl)-1,3-dihydro-imidazo[4,5-c]quinolin-2-one], the IC50 stood at 4 nM.

Staying with this assay, now noted: read-out: mTOR/IC50.
As to `COc1ccc(-c2ccc3ncc4c(c3c2)n(-c2cccnc2C)c(=O)n4C)cc1OC` [Example 2.9, 8-(3,4-Dimethoxy-phenyl)-3-methyl-1-(2-methyl-pyridin-3-yl)-1,3-dihydro-imidazo[4,5-c]quinolin-2-one], the IC50 stood at 23 nM.

`CNc1ncc(-c2ccc3ncc4c(c3c2)n(-c2ncccc2C)c(=O)n4C)cn1` [Example 3.4, 3-Methyl-8-(2-methylamino-pyrimidin-5-yl)-1-(3-methyl-pyridin-2-yl)-1,3-dihydro-imidazo[4,5-c]quinolin-2-one]: the IC50 amounted to 607 nM.

For the compound `CNC(=O)c1ccc(-c2ccc3ncc4c(c3c2)n(-c2ncccc2C)c(=O)n4C)cc1` [Example 3.5, N-Methyl-4-[3-methyl-1-(3-methyl-pyridin-2-yl)-2-oxo-2,3-dihydro-1H-imidazo[4,5-c]quinolin-8-yl]-benzamide], the IC50 turned out to be 331 nM.

On to `Cn1c(=O)n(-c2cccnc2)c2c3cc(-c4ccc(CO)nc4)ccc3ncc21` [Example 5.1, 8-(6-Hydroxymethyl-pyridin-3-yl)-3-methyl-1-pyridin-3-yl-1,3-dihydro-imidazo[4,5-c]quinolin-2-one], for which the IC50 worked out at 351 nM.

Turning to `CN(C)c1ccc(-c2ccc3ncc4c(c3c2)n(-c2cccnc2)c(=O)n4C)cn1` [Example 5.3, 8-(6-Dimethylamino-pyridin-3-yl)-3-methyl-1-pyridin-3-yl-1,3-dihydro-imidazo[4,5-c]quinolin-2-one], the IC50 came out at 253 nM.

With `CCOc1ccc(-c2ccc3ncc4c(c3c2)n(-c2cccnc2F)c(=O)n4C)cn1` [Example 6.1, 8-(6-Ethoxy-pyridin-3-yl)-1-(2-fluoro-pyridin-3-yl)-3-methyl-1,3-dihydro-imidazo[4,5-c]quinolin-2-one], the IC50 stood at 107 nM.
